In US5306721A (priority 1990, dated 1994):
Where two headings read alike, the source gives them in different places.

Columns and labels:
[1] = test system: adenovirus type 4; experiment: Antiviral activity against adenovirus type 4; format: cell-based
[2] = test system: Herpes simplex type 1 Kupka; experiment: Grading replication test on RH cell line, herpes simplex type 1 Kupka; format: cell-based, herpes simplex virus; conditions: RH cells
[3] = test system: Vaccinia Lister; experiment: microbe, parasite or virus in culture; format: cell-based; conditions: Orthopoxvirus vaccinia
[4] = test system: Influenza A/WSN; experiment: Grading replication test on chicken embryo cells, influenza; format: cell-based; conditions: Influenza A virus
[5] = test system: Herpes simplex type 1; experiment: microbe, parasite or virus in culture; format: cell-based, herpes simplex virus
[6] = test system: SE-specific IgM and IgG plaque forming cells (PFC); experiment: Plaque test (HPT) for SE-specific IgM and IgG plaque forming cells, immunostimulatory action; format: in vivo, mouse (inbred CBA strain); conditions: 2.0 mg/kg daily over 5 days; control 100%; p<0.001
Description: The testing of immunostimulatory effects was also conducted on the mouse (inbred CBA strain) by detection through the plaque test for detecting SE (sheep erythrocyte) -specific immunoglobulin M (IgM) and immunoglobulin G (IgG) PFC (plaque forming cells), and by the rosette test.
2.1 Plaque Test for the Detection of SE-Specific IgM and IgG Plaque Forming Cells (PFC)
To check the immunostimulatory effects, the humoral immune response effect of compounds of Formula I was also investigated in mice of the inbred CBA strain and determined by means of the haemolysis plaque test (HPT). This technique permits the PFC, which produce IgM and IgG antibodies, to be determined quantitatively and separately. The immunization with sheep erythrocytes (SE) was carried out on day 0, the substance was administered orally in a daily dose of 1×10^-5 moles/kg of body weight; on days -1 to +3 relative to the determination of the IgM PFC, or on days +1 to +5 relative to the determination of the IgG PFC.
It becomes clear that a daily treatment extending over 5 days with the compound of Example 1, produces a highly significant increase in the SE-specific IgM and IgG PFC in the CBA mouse.

[7] = test system: Vesicular Stomatitis Indiana; experiment: microbe, parasite or virus in culture; format: cell-based; conditions: in Gallus gallus, read-out: Plaque reduction in % of the virus control
[8] = test system: Vaccinia Lister; experiment: microbe, parasite or virus in culture; format: cell-based; conditions: Orthopoxvirus vaccinia, in Gallus gallus, read-out: Plaque reduction in % of the virus control
[9] = test system: SE-specific IgM and IgG plaque forming cells (PFC); experiment: Immunorestorative efficacy: plaque test in cyclophosphamide (CY) damaged animals; format: in vivo, mouse (CBA inbred); conditions: for IgM PFC/10^6, CY + compound / IgG PFC/10^6 spleen cells, CY + compound: CY 150 mg/kg, oral 2 mg/kg
Description: The detection of immunorestorative effects after injury to the immune system was carried out also by the plaque test for detecting SE-specific IgM, and IgG PFC, and by the rosette test.
The determination of the immunorestorative activity of compounds of Formula I was conducted by first damaging the immune system of the experimental animals (CBA inbred mice) by chemotherapy with cyclophosphamide, carrageenan, iloprost, or by radiation. The test was carried the plaque test for detecting SE-specific IgM and IgG PFC, and the rosette test.
The examination of the immunorestorative effects of compounds of Example 1 was carried out by damaging the immune system of the experimental animals by cyclophosphamide (CY), and subsequent testing by sheep erythrocycle SE-specific plaque forming cells PFC.
The immune system of the animals was damaged by the injection of 150 mg/kg of body weight on day -1 before the immunization for both the test and the control groups. Immunization was carried out by the intraperitoneal injection of 4×10^8 SE in 0.2 ml of phosphate buffered saline (PBS) solution.
Each of the experimental animals of the test group received by oral administration 2 mg of the compound of Example 1 per kg of body weight on the days -2, -1, 0, +1 and +2. The SE-specific IgM and IgG PFC was detected by the plaque test.

[10] = test system: Vesicular Stomatitis Indiana; experiment: microbe, parasite or virus in culture; format: cell-based, vesicular stomatitis virus
[11] = test system: coxsackie A 9 virus; experiment: Antiviral activity against coxsackie A 9 virus; format: cell-based
[12] = test system: Influenza A/WSN; experiment: Plaque reduction test, influenza; format: cell-based; conditions: Influenza A virus, primary chicken embryo cells, read-out: Plaque reduction in % of the virus control
[13] = test system: Vaccinia Lister; experiment: microbe, parasite or virus in culture; format: cell-based, vaccinia virus
[14] = read-out: Inhibition of virus yield
[15] = read-out: Lowering the virus yield
[16] = Vesicular stomatitis virus, in Gallus gallus, read-out: Lowering the virus yield
[17] = Orthopoxvirus vaccinia, in Gallus gallus, read-out: Inhibition of virus yield
[18] = Orthopoxvirus vaccinia, in Gallus gallus, read-out: Lowering the virus yield

Structure (SMILES): O=c1[nH]c2ccccc2c(=O)n1CCS [Example 1, 3-(2-mercapto-ethyl)-quinazoline-2,4(1H,3H)-dione]
- antiviral activity [1]: did not have antiviral activity
- Inhibition of virus yield ([2]; 62.5 μmoles/l, n.s. = not significant): n.s.
- log reduction at 62.5 µM ([2]; Human alphaherpesvirus 1, 62.5 μmoles/l, read-out: Lowering the virus yield): 0.75
- inhibition at 125 µM ([2]; Human alphaherpesvirus 1, 125 μmoles/l, read-out: Inhibition of virus yield): > 100%
- log reduction at 125 µM ([2]; Human alphaherpesvirus 1, 125 μmoles/l, read-out: Lowering the virus yield): 5.5
- inhibition at 250 µM ([2]; Human alphaherpesvirus 1, 250 μmoles/l, read-out: Inhibition of virus yield): > 100%
- log reduction at 250 µM ([2]; Human alphaherpesvirus 1, 250 μmoles/l, read-out: Lowering the virus yield): 6
- inhibition at 31.25 µM [3, 14]: > 100%
- inhibition at 62.5 µM [3, 14]: 100%
- inhibition at 125 µM [3, 14]: > 100%
- inhibition at 250 µM [3, 14]: > 100%
- log reduction at 31.25 µM [3, 15]: 3.5
- log reduction at 62.5 µM [3, 15]: 4
- log reduction at 125 µM [3, 15]: > 4
- log reduction at 250 µM [3, 15]: > 4
- inhibition at 31.25 µM ([4]; 31.25 μmoles/l, read-out: Inhibition of virus yield): 99.5%
- log reduction at 31.25 µM ([4]; 31.25 μmoles/l, read-out: Lowering the virus yield): 2.5
- inhibition at 62.5 µM ([4]; 62.5 μmoles/l, read-out: Inhibition of virus yield): > 100%
- log reduction at 62.5 µM ([4]; 62.5 μmoles/l, read-out: Lowering the virus yield): 4.25
- inhibition at 125 µM ([4]; 125 μmoles/l, read-out: Inhibition of virus yield): > 100%
- log reduction at 125 µM ([4]; 125 μmoles/l, read-out: Lowering the virus yield): 4.67
- inhibition at 250 µM ([4]; 250 μmoles/l, read-out: Inhibition of virus yield): > 100%
- log reduction at 250 µM ([4]; 250 μmoles/l, read-out: Lowering the virus yield): 6.23
- Inhibition of virus yield [5]: n.s.
- log reduction at 125 µM ([5]; Human alphaherpesvirus 1, in Gallus gallus, read-out: Lowering the virus yield): 0.33
- inhibition at 250 µM ([5]; Human alphaherpesvirus 1, 250 μmoles/l, chicken embryo cells, read-out: Inhibition of virus yield): 99%
- log reduction at 250 µM ([5]; Human alphaherpesvirus 1, 250 μmoles/l, chicken embryo cells, read-out: Lowering the virus yield): 1
- number of IgG PFC relative to control [6]: 497%
- number of IgM PFC relative to control [6]: 352%
- inhibition at 62.5 µM [7]: 0%
- inhibition at 125 µM [7]: 15%
- inhibition at 250 µM [7]: 45%
- inhibition at 31.25 µM [8]: 87%
- inhibition at 62.5 µM [8]: 92%
- inhibition at 125 µM [8]: 96%
- inhibition at 250 µM [8]: 100%
- number of IgG PFC in CY-suppressed animals ([9]; 6th and 7th days, p<0.05 and p<0.01): significantly increases the number of IgG PFC
- recovery of the immunological reactivity (IgM PFC) ([9]; CY-damaged animals, significant on the 5th day, p<0.05): measurable recovery of the immunological reactivity
- IgM PFC/10^6, CY + compound ([9]; day of testing +3, CY only control 37.5 ± 27.1): 31.7 ± 26.6 PFC/10^6
- IgM PFC/10^6, CY + compound ([9]; day of testing +4, CY only control 49.7 ± 32.9): 59.8 ± 26.6 PFC/10^6
- IgM PFC/10^6, CY + compound ([9]; day of testing +5, CY only control 56.8 ± 27.6, p<0.05): 125.2 ± 32.7 PFC/10^6
- IgG PFC/10^6 spleen cells, CY + compound ([9]; day of testing +6, CY only control 26.7 ± 12.1, p<0.05): 88.3 ± 24.8 PFC/10^6 spleen cells
- IgM PFC/10^6, CY + compound ([9]; day of testing +6, CY only control 74.7 ± 73.4): 47.8 ± 32.7 PFC/10^6
- IgG PFC/10^6 spleen cells, CY + compound ([9]; day of testing +7, CY only control 46.7 ± 16.3, p<0.01): 128.3 ± 28.6 PFC/10^6 spleen cells
- IgG PFC/10^6 spleen cells, CY + compound ([9]; day of testing +8, CY only control 63.3 ± 24.2): 58.3 ± 43.6 PFC/10^6 spleen cells
- Inhibition of virus yield ([10]; 125 μmoles/l, chicken embryo cells, n.s. = not significant): n.s.
- inhibition at 250 µM ([10]; Vesicular stomatitis virus, in Gallus gallus, read-out: Inhibition of virus yield): 99.9%
- log reduction at 125 µM [10, 16]: 0.5
- log reduction at 250 µM [10, 16]: 3
- antiviral activity [11]: did not have antiviral activity
- inhibition at 31.25 µM ([12]; 31.25 μmoles/l): 85%
- inhibition at 62.5 µM ([12]; 62.5 μmoles/l): 92%
- inhibition at 125 µM ([12]; 125 μmoles/l): 98%
- inhibition at 250 µM ([12]; 250 μmoles/l): 100%
- inhibition at 31.25 µM [13, 17]: 99%
- inhibition at 62.5 µM [13, 17]: 99.7%
- inhibition at 125 µM [13, 17]: 100%
- inhibition at 250 µM [13, 17]: > 100%
- log reduction at 31.25 µM [13, 18]: 1
- log reduction at 62.5 µM [13, 18]: 2.5
- log reduction at 125 µM [13, 18]: 4
- log reduction at 250 µM [13, 18]: 5.67
- therapeutic index ([13]; ratio of maximum tolerated dose to minimum effective dose, vaccinia virus): 8
